Patent US5591714A, “Derivatives of A82846” (priority 1994, dated 1997)

Experiments:
human serum protein = details: cited from earlier work
[1] = system: six vancomycin-susceptible strains of staphylococci and enterococci; test: Effect of human serum on the MIC, serial dilution assay; assay type: cell-based
Source text: Another important property of the formula I compounds is the low binding of the compounds to serum proteins when compared with other glycopeptide antibiotics. […] The ratio of the MIC measured in the presence of added serum to the MIC measured in the absence of added serum ("ratio") is an indication of the degree of serum binding. […] A ratio that is greater than one, for example about ten, indicates the compound has a high degree of serum binding.

CN[C@H](CC(C)C)C(=O)N[C@H]1C(=O)N[C@@H](CC(N)=O)C(=O)N[C@H]2C(=O)N[C@H]3C(=O)N[C@H](C(=O)N[C@H](C(=O)O)c4cc(O)cc(O)c4-c4cc3ccc4O)[C@H](O)c3ccc(c(Cl)c3)Oc3cc2cc(c3O[C@@H]2O[C@H](CO)[C@@H](O)[C@H](O)[C@H]2O[C@H]2C[C@](C)(N)[C@H](O)[C@H](C)O2)Oc2ccc(cc2Cl)[C@H]1O [vancomycin]
level of human serum protein binding (human serum protein): 55%

Teicoplanin [reference compound]
MIC determined in absence of added serum ([1]; absence (-) of human serum): 0.25 | ratio of the MIC in the presence of added serum to the MIC in the absence of added serum ([1]; indication of the degree of serum binding): 12.6 | MIC determined in presence of human serum ([1]; presence (+) of human serum, broth supplemented with human serum to 40%): 3.8 | level of human serum protein binding (human serum protein): about 90%
